Test results: ChEMBL document CHEMBL1155159, “Population pharmacokinetics of tafenoquine during malaria prophylaxis in healthy subjects” (Antimicrob Agents Chemother, 2007)

Experiments:
[1] = Clast in po dosed human […] and reporting drug-associated hyperesthesia on day 12 dosed at 200 mg daily for 3 days followed by weekly dose of 200 mg for 6 months; type: ADME, organism-based; conditions: in vivo, read-out: Clast
[2] = Half life po dosed human receiving 800 mg cumulative dose and reporting drug-associated hyperesthesia on day 12 at 200 mg daily for 3 days followed by weekly dose of 200 mg for 6 months; type: ADME, organism-based; conditions: in vivo
[3] = Apparent clearance with respect to bioavailability in po dosed human at 200 mg daily for 3 days followed by weekly dose of 200 mg for 6 months; type: ADME, organism-based; conditions: in vivo
[4] = Half life po dosed human receiving 400 mg cumulative dose and reporting drug-associated diarrhea and/or abdominal pain on day 2 at 200 mg daily for 3 days followed by weekly dose of 200 mg for 6 months; type: ADME, organism-based, Abdomen; conditions: in vivo
[5] = Half life po dosed human receiving 1000 mg cumulative dose and reporting drug-associated vomiting and/or nausea on day 3 at 200 mg daily for 3 days followed by weekly dose of 200 mg for 6 months; type: ADME, organism-based; conditions: in vivo
[6] = Apparent clearance with respect to the bioavailability po dosed human receiving 1000 mg cumulative dose and reporting drug-associated abdominal pain on day 20 at 200 mg daily for 3 days followed by weekly dose of 200 mg for 6 months; type: ADME, organism-based, Abdomen; conditions: in vivo
[7] = Apparent clearance with respect to the bioavailability po dosed human receiving 200 mg cumulative dose and reporting drug-associated insomnia reported on day 1 at 200 mg daily for 3 days followed by weekly dose of 200 mg for 6 months; type: ADME, organism-based; conditions: in vivo
[8] = Apparent volume of distribution with respect to the bioavailability in po dosed human receiving 1000 mg cumulative dose and reporting drug-associated depression on day 24 at 200 mg daily for 3 days followed by weekly dose of 200 mg for 6 months; type: ADME, organism-based; conditions: in vivo, read-out: Vc/F
[9] = Trough concentration in po dosed human at 200 mg daily for 3 days followed by weekly dose of 200 mg for 6 months after 16 weeks; type: ADME, organism-based; conditions: in vivo, read-out: Cmin
[10] = Apparent volume of distribution with respect to the bioavailability in po dosed human receiving 1000 mg cumulative dose and reporting drug-associated abdominal pain on day 20 at 200 mg daily for 3 days followed by weekly dose of 200 mg for 6 months; type: ADME, organism-based, Abdomen; conditions: in vivo, read-out: Vc/F
[11] = Clast in po dosed human receiving 600 mg cumulative dose and reporting drug-associated vomiting and/or nausea reported on day 3 at 200 mg daily for 3 days followed by weekly dose of 200 mg for 6 months; type: ADME, organism-based; conditions: in vivo, read-out: Clast
[12] = Apparent volume of distribution with respect to the bioavailability in po dosed human receiving 400 mg cumulative dose and reporting drug-associated diarrhea and/or abdominal pain on day 2 at 200 mg daily for 3 days followed by weekly dose of 200 mg for 6 months; type: ADME, organism-based, Abdomen; conditions: in vivo, read-out: Vc/F
[13] = Tmax in human administered with standard high-fat meal; type: ADME, organism-based; conditions: in vivo
[14] = Trough concentration in po dosed human at 200 mg daily for 3 days followed by weekly dose of 200 mg for 6 months after 4 weeks; type: ADME, organism-based; conditions: in vivo, read-out: Cmin
[15] = Apparent clearance with respect to the bioavailability po dosed human receiving 800 mg cumulative dose and reporting drug-associated with hyperesthesia on day 12 at 200 mg daily for 3 days followed by weekly dose of 200 mg for 6 months; type: ADME, organism-based; conditions: in vivo
[16] = Tmax in fasted human; type: ADME, organism-based; conditions: in vivo
[17] = Apparent volume of distribution with respect to the bioavailability in po dosed human receiving 400 mg cumulative dose and reporting drug-associated insomnia on day 1 at 200 mg daily for 3 days followed by weekly dose of 200 mg for 6 months; type: ADME, organism-based; conditions: in vivo, read-out: Vc/F
[18] = Apparent clearance with respect to the bioavailability po dosed human receiving 1000 mg cumulative dose and reporting drug-associated depression on day 24 at 200 mg daily for 3 days followed by weekly dose of 200 mg for 6 months; type: ADME, organism-based; conditions: in vivo
[19] = Apparent clearance with respect to the bioavailability po dosed human receiving 400 mg cumulative dose and reporting drug-associated diarrhea and/or abdominal pain on day 2 at 200 mg daily for 3 days followed by weekly dose of 200 mg for 6 months; type: ADME, organism-based, Abdomen; conditions: in vivo
[20] = Half life po dosed human receiving 1000 mg cumulative dose and reporting drug-associated depression on day 24 at 200 mg daily for 3 days followed by weekly dose of 200 mg for 6 months; type: ADME, organism-based; conditions: in vivo
[21] = Apparent volume of distribution with respect to the bioavailability in po dosed human receiving 600 mg cumulative dose and reporting drug-associated vomiting and/or nausea on day 3 at 200 mg daily for 3 days followed by weekly dose of 200 mg for 6 months; type: ADME, organism-based; conditions: in vivo, read-out: Vc/F
[22] = Trough concentration in po dosed human at 200 mg daily for 3 days followed by weekly dose of 200 mg for 6 months after 8 weeks; type: ADME, organism-based; conditions: in vivo, read-out: Cmin
[23] = Clast in po dosed human receiving 1000 mg cumulative dose and reporting drug-associated depression reported on day 24 at 200 mg daily for 3 days followed by weekly dose of 200 mg for 6 months; type: ADME, organism-based; conditions: in vivo, read-out: Clast
[24] = Apparent volume of distribution with respect to bioavailability in po dosed human at 200 mg daily for 3 days followed by weekly dose of 200 mg for 6 months; type: ADME, organism-based; conditions: in vivo, read-out: Vc/F
[25] = Half life po dosed human receiving 200 mg cumulative dose and reporting drug-associated insomnia on day 1 at 200 mg daily for 3 days followed by weekly dose of 200 mg for 6 months; type: ADME, organism-based; conditions: in vivo
[26] = Clast in po dosed human receiving 1000 mg cumulative dose and reporting drug-associated abdominal pain on day 20 at 200 mg daily for 3 days followed by weekly dose of 200 mg for 6 months; type: ADME, organism-based, Abdomen; conditions: in vivo, read-out: Clast
[27] = Half life po dosed human receiving 1000 mg cumulative dose and reporting drug-associated abdominal pain on day 20 at 200 mg daily for 3 days followed by weekly dose of 200 mg for 6 months; type: ADME, organism-based, Abdomen; conditions: in vivo
[28] = Half life in po dosed human at 200 mg daily for 3 days followed by weekly dose of 200 mg for 6 months; type: ADME, organism-based; conditions: in vivo
[29] = Apparent volume of distribution with respect to the bioavailability in po dosed human receiving 800 mg cumulative dose and reporting drug-associated hyperesthesia on day 12 at 200 mg daily for 3 days followed by weekly dose of 200 mg for 6 months; type: ADME, organism-based; conditions: in vivo, read-out: Vc/F
[30] = Apparent clearance with respect to the bioavailability in human at 600 mg cumulative dose with vomiting and/or nausea reported on day 3 at 200 mg daily for 3 days followed by weekly dose of 200 mg for 6 months, po; type: ADME, organism-based; conditions: in vivo

COc1cc(C)c2c(Oc3cccc(C(F)(F)F)c3)c(OC)cc(NC(C)CCCN)c2n1 (stereo not given) [TAFENOQUINE]
concentration at 72 h [1]: 0.283 µg/mL | half-life [2]: 13.1 days | CL/F [3]: 72.8 mL/min | half-life [4]: 12 days | half-life [5]: 9.8 days | CL/F [6]: 0.053 L/h/kg | CL/F [7]: 0.059 L/h/kg | Vd/F [8]: 25.1 L/kg | concentration at 2688 h [9]: 0.221 µg/mL | Vd/F [10]: 27.8 L/kg | concentration at 72 h [11]: 0.315 µg/mL | Vd/F [12]: 24.4 L/kg | Tmax [13]: 1.1 days | concentration at 672 h [14]: 0.221 µg/mL | CL/F [15]: 0.046 L/h/kg | Tmax [16]: 0.775 days | Vd/F [17]: 23.2 L/kg | CL/F [18]: 0.061 L/h/kg | CL/F [19]: 0.059 L/h/kg | half-life [20]: 12 days | Vd/F [21]: 26.1 L/kg | concentration at 1344 h [22]: 0.221 µg/mL | concentration at 72 h [23]: 0.275 µg/mL | Vd/F [24]: 1900 L | half-life [25]: 11.3 days | concentration at 72 h [26]: 0.253 µg/mL | half-life [27]: 15.1 days | half-life [28]: 12.7 days | Vd/F [29]: 20.7 L/kg | CL/F [30]: 0.077 L/h/kg
